Columns and labels:
Assay type in all cases: functional, cell-based
[1] = molecular target: T1, ATP-dependent translocase ABCB1 (Homo sapiens, UniProt P08183); test: TP_TRANSPORTER: increase in Vinblastine intracellular accumulation in MDR1-expressing LLC-PK1 cells
[2] = molecular target: T1, ATP-dependent translocase ABCB1; test: TP_TRANSPORTER: increase in Calcein-AM intracellular accumulation in MDR1-expressing LLC-PK1 cells
[3] = molecular target: T1, ATP-dependent translocase ABCB1; test: TP_TRANSPORTER: inhibition of Digoxin transepithelial transport (basal to apical) (Digoxin: 5 uM) in Caco-2 cells

T1 sequence (P08183 whole entry): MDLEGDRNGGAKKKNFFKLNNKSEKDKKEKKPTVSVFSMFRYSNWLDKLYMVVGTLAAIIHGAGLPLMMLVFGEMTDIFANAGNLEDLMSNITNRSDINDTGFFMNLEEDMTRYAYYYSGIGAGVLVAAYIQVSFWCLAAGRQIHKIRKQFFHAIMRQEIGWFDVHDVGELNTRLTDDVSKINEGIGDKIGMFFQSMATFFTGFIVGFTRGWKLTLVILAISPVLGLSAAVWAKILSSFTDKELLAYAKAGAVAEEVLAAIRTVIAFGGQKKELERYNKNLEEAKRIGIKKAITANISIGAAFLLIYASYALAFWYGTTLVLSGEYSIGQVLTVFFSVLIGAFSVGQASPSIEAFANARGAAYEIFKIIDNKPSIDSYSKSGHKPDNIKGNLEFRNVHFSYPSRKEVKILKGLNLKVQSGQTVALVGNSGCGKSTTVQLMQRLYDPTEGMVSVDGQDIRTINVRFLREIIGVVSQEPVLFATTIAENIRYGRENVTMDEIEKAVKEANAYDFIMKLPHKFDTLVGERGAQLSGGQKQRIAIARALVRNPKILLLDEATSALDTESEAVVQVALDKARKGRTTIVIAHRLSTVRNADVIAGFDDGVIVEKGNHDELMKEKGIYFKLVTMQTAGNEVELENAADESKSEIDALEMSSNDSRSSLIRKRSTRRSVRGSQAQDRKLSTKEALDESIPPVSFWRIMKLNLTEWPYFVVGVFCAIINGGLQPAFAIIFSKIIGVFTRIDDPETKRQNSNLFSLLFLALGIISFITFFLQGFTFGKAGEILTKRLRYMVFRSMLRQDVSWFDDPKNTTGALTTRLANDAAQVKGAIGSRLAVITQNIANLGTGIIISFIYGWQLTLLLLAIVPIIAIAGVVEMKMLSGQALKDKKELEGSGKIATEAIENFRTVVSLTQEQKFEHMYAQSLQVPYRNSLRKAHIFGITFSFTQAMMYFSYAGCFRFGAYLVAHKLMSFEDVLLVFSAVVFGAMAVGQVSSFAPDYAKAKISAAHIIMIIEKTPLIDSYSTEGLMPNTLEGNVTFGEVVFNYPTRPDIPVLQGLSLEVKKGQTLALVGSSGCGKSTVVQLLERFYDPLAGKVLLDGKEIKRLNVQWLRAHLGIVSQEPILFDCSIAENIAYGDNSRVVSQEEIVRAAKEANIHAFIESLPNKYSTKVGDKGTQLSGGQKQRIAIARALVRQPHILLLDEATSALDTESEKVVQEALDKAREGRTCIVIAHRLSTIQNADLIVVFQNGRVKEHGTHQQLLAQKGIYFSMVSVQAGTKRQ

Compound | Ki [1] | Ki [2] | IC50 [3]
CC(C)[C@@]1(NC(=O)[C@@H]2C=C3c4cccc5[nH]cc(c45)C[C@H]3N(C)C2)O[C@@]2(O)[C@@H]3CCCN3C(=O)[C@H](Cc3ccccc3)N2C1=O [ERGOCRISTINE] | 13.3 µM | 42.8 µM | –
CC(C)C[C@H]1C(=O)N2CCC[C@H]2[C@]2(O)O[C@](NC(=O)[C@@H]3C=C4c5cccc6[nH]cc(c56)C[C@H]4N(C)C3)(C(C)C)C(=O)N12 [ERGOCRYPTINE] | 6.43 µM | 12.2 µM | –
CN1C[C@H](C(=O)N[C@]2(C)O[C@@]3(O)[C@@H]4CCCN4C(=O)[C@H](Cc4ccccc4)N3C2=O)C[C@@H]2c3cccc4[nH]cc(c34)C[C@H]21 [DIHYDROERGOTAMINE] | 120 µM | > 1000 µM | –
COc1ccc(CCCN2CCC(Cc3ccccc3)CC2)cc1OC | – | – | 2.3 µM
CC(C)C[C@H]1C(=O)N2CCC[C@H]2[C@]2(O)O[C@](NC(=O)[C@@H]3C=C4c5cccc6[nH]c(Br)c(c56)C[C@H]4N(C)C3)(C(C)C)C(=O)N12 [BROMOCRIPTINE] | 3.96 µM | 2.81 µM | –
CN1C[C@H](C(=O)N[C@]2(C)O[C@@]3(O)[C@@H]4CCCN4C(=O)[C@H](Cc4ccccc4)N3C2=O)C=C2c3cccc4[nH]cc(c34)C[C@H]21 [ERGOTAMINE] | 14.2 µM | 98.9 µM | –
OC(Cn1cncn1)(Cn1cncn1)c1ccc(F)cc1F [FLUCONAZOLE] | > 400 µM | > 1000 µM | –
COC(=O)[C@H]1[C@H]2C[C@@H]3c4[nH]c5cc(OC)ccc5c4CCN3C[C@H]2C[C@@H](OC(=O)c2cc(OC)c(OC)c(OC)c2)[C@@H]1OC [RESERPINE] | 0.97 µM | 12.2 µM | –
C[C@@H](CO)NC(=O)[C@@H]1C=C2c3cccc4[nH]cc(c34)C[C@H]2N(C)C1 [ERGONOVINE] | > 100 µM | 115 µM | –
CC(C)[C@@]1(NC(=O)[C@@H]2C[C@@H]3c4cccc5[nH]cc(c45)C[C@H]3N(C)C2)O[C@@]2(O)[C@@H]3CCCN3C(=O)[C@H](Cc3ccccc3)N2C1=O [DIHYDROERGOCRISTINE] | 16 µM | 511 µM | –
CC(C)[C@H]1C(=O)N2CCC[C@H]2[C@]2(O)O[C@](NC(=O)[C@@H]3C=C4c5cccc6[nH]cc(c56)C[C@H]4N(C)C3)(C(C)C)C(=O)N12 [ERGOCORNINE] | 24.5 µM | 105 µM | –
CC(C)C[C@H]1C(=O)N2CCC[C@H]2[C@]2(O)O[C@](NC(=O)[C@@H]3C[C@@H]4c5cccc6[nH]cc(c56)C[C@H]4N(C)C3)(C(C)C)C(=O)N12 [DIHYDROERGOCRYPTINE] | 19.8 µM | 360 µM | –

— ChEMBL document CHEMBL2074392, “Three-dimensional quantitative structure-activity relationships of inhibitors of P-glycoprotein” (Mol Pharmacol, 2002)
